Experiments:
[1] = test system: Proto-oncogene tyrosine-protein kinase receptor Ret (Homo sapiens), P07949 [M918T]; details: at 10 µM
[2] = target: Mitogen-activated protein kinase kinase kinase 10 (Homo sapiens) (UniProt Q02779); test: Selectivity interaction (KinomeScan (DiscoverX)) EUB0000092b MAP3K10; details: at 10 µM
[3] = target: Ribosomal protein S6 kinase alpha-3 (Homo sapiens, UniProt P51812); test: Selectivity interaction (KinomeScan (DiscoverX)) EUB0000666a RPS6KA3; details: at 10 µM
[4] = target: Ribosomal protein S6 kinase alpha-4 (Homo sapiens) (UniProt O75676); test: Selectivity interaction (KinaseProfiler screening (Millipore)) EUB0000601a RPS6KA4; details: at 3 µM
[5] = target: Dual specificity mitogen-activated protein kinase kinase 1 (Homo sapiens, UniProt Q02750); test: Selectivity interaction (ActivX KiNativ screen (kinase selectivity in THP-1 cell lysates)) EUB0000639a MAP2K1; format: subcellular; details: lysate, at 0.2 µM
[6] = target: Casein kinase I isoform gamma-1 (Homo sapiens) (UniProt Q9HCP0); test: Selectivity interaction (KinomeScan (DiscoverX)) EUB0000607a CSNK1G1; details: at 10 µM
[7] = target: Homeodomain-interacting protein kinase 4 (Homo sapiens, UniProt Q8NE63); test: Selectivity interaction (Enzymatic assay (Eurofins)) EUB0001049a HIPK4
[8] = target: Tyrosine-protein kinase JAK1 (Homo sapiens, UniProt P23458); test: Selectivity interaction (Kinase panel (Carna Biosciences)) EUB0001542aTs JAK1; details: at 1 µM
[9] = target: Bone morphogenetic protein receptor type-1B (Homo sapiens, UniProt O00238); test: Selectivity interaction (Ambit KINOMEscan and KiNATiv profiling in Jurkat cells) EUB0000090b BMPR1B; format: cell-based; details: at 1 µM
[10] = target: T1, Serine/threonine-protein kinase LATS2 (Homo sapiens) (UniProt Q9NRM7); test: Selectivity interaction (KinomeScan (DiscoverX)) EUB0001619a LATS2; details: at 1 µM
T1 sequence (whole entry): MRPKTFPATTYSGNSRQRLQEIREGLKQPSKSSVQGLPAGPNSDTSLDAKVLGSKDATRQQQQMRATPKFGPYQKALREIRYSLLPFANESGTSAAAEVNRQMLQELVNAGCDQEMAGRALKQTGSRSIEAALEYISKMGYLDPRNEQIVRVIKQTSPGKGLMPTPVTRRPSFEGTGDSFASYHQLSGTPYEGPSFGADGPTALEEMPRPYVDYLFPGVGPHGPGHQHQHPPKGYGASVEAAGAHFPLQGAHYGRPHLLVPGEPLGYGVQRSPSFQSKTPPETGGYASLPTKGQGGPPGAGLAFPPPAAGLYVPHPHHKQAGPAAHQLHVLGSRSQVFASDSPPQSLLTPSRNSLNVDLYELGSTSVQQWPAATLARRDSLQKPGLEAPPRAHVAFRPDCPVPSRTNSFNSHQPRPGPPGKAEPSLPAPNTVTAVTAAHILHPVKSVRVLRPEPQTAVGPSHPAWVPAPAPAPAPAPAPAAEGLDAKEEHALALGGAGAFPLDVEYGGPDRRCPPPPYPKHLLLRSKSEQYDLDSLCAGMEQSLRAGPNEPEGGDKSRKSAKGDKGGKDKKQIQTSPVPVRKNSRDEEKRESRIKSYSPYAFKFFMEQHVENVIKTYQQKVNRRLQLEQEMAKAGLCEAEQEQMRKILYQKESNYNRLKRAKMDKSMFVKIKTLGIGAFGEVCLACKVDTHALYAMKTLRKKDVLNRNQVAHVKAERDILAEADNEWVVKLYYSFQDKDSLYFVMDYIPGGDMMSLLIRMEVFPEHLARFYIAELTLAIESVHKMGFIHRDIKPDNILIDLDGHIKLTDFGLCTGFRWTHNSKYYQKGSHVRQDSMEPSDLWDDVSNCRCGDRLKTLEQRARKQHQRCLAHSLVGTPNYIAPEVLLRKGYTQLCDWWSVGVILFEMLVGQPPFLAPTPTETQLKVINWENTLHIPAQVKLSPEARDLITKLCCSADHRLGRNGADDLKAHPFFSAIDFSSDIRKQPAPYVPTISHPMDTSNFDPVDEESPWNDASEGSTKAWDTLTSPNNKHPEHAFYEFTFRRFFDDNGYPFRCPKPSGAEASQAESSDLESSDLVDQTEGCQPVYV

Dual specificity mitogen-activated protein kinase kinase 1, sequence (Q02750 whole entry, canonical isoform): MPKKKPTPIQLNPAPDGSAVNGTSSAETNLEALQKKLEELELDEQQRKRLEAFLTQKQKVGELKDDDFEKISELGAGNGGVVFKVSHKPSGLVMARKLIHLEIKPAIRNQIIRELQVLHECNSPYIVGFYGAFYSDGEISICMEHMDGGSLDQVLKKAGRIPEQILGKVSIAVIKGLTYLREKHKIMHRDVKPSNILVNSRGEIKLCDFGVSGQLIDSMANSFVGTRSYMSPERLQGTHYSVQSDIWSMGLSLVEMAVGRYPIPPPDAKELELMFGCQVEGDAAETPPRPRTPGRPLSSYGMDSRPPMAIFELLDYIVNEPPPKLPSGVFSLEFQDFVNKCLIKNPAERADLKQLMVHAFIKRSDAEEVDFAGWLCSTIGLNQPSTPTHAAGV
Ribosomal protein S6 kinase alpha-3, sequence (P51812 whole entry): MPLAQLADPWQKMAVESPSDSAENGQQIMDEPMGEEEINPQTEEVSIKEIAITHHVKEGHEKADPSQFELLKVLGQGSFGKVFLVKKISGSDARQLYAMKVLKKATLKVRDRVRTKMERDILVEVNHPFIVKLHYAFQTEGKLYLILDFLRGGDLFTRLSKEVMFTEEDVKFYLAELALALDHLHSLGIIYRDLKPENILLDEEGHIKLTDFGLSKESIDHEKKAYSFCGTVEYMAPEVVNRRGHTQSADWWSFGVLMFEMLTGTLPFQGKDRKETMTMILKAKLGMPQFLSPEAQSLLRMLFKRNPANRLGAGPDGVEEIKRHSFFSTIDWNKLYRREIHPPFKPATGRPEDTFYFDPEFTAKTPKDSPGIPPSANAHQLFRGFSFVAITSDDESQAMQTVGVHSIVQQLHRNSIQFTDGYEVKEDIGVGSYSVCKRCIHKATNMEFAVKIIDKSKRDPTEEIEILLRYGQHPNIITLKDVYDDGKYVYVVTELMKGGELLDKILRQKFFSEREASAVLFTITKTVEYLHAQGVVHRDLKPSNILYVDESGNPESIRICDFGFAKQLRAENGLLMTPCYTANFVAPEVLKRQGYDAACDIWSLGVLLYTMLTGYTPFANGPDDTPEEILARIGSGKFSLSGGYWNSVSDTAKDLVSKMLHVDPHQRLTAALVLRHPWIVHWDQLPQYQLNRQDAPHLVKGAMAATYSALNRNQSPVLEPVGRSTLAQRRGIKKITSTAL
Ribosomal protein S6 kinase alpha-4 (Homo sapiens), sequence (O75676 whole entry, looked up): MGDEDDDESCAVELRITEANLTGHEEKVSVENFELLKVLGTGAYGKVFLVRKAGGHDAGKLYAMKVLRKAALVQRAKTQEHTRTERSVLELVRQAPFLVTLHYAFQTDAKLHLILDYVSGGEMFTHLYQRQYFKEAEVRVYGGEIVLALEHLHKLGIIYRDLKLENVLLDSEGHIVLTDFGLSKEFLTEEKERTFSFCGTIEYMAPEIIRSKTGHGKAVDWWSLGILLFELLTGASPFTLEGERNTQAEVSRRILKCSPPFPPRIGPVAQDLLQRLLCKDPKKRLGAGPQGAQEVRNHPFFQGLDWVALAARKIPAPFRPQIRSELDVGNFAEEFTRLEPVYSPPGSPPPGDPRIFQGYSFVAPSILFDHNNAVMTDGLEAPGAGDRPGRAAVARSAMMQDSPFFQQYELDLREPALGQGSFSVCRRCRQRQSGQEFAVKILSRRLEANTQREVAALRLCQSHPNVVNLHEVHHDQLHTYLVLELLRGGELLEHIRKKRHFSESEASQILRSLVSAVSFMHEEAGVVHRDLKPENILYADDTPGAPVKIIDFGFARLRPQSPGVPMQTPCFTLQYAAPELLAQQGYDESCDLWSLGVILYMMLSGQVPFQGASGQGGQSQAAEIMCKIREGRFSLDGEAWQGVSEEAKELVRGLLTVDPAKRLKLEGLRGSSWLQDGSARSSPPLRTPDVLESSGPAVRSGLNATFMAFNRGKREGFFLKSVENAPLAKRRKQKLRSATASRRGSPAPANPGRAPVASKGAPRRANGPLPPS
Mitogen-activated protein kinase kinase kinase 10 (Homo sapiens), sequence (Q02779 whole entry, looked up): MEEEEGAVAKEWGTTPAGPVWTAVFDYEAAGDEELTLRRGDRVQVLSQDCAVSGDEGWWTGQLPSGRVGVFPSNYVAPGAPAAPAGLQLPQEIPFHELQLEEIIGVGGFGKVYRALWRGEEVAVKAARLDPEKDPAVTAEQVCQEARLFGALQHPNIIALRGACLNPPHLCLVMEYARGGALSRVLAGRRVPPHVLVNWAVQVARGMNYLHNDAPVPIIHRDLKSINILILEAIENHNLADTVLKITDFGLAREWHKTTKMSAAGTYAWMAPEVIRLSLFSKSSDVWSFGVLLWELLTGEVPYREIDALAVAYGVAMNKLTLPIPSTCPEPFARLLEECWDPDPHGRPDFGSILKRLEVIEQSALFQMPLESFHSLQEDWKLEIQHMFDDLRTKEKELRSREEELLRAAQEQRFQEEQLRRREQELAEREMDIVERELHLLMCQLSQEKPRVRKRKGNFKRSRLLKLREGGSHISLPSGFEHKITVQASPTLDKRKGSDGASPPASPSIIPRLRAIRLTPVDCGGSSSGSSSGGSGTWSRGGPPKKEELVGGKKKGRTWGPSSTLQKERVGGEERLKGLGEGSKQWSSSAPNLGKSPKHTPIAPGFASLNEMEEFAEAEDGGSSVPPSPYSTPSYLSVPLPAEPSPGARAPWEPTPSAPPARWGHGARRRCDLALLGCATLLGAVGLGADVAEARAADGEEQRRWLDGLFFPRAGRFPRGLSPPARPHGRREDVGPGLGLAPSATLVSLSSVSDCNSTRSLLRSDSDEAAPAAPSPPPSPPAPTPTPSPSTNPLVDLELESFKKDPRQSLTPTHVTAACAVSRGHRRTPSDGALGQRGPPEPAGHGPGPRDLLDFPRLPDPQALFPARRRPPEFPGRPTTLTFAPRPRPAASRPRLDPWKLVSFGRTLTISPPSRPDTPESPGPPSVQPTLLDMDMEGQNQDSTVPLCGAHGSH
Tyrosine-protein kinase JAK1, sequence (P23458 whole entry): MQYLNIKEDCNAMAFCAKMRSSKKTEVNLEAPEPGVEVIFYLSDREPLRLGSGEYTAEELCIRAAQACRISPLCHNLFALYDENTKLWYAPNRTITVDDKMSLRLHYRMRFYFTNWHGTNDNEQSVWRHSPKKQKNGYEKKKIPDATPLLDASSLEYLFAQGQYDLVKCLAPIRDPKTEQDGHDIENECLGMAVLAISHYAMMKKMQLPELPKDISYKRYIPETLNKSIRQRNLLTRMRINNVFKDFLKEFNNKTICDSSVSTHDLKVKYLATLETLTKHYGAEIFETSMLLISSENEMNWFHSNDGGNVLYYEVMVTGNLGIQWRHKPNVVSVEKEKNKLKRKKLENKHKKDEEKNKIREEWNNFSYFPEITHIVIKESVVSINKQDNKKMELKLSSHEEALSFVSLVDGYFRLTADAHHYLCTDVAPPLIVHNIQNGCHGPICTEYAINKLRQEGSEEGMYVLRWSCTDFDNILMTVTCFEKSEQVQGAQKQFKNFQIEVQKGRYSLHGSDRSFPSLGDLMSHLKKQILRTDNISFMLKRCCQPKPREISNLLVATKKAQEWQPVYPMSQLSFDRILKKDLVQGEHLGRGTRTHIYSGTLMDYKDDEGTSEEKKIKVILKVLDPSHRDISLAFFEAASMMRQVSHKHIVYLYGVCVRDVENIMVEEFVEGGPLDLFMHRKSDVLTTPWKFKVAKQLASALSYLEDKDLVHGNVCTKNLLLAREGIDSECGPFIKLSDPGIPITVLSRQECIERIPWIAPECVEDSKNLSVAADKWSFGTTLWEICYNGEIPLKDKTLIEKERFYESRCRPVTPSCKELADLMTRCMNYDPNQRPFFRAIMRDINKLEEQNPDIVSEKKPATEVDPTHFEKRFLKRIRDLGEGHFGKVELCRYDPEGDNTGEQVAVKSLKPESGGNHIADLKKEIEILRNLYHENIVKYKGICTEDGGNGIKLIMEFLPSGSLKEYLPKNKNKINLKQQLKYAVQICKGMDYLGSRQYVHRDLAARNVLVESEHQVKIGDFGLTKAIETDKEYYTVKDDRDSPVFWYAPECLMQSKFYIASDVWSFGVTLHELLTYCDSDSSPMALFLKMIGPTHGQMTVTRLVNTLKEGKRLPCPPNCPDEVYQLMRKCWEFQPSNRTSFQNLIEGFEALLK
Casein kinase I isoform gamma-1 (Homo sapiens), sequence (Q9HCP0 whole entry, looked up, canonical isoform): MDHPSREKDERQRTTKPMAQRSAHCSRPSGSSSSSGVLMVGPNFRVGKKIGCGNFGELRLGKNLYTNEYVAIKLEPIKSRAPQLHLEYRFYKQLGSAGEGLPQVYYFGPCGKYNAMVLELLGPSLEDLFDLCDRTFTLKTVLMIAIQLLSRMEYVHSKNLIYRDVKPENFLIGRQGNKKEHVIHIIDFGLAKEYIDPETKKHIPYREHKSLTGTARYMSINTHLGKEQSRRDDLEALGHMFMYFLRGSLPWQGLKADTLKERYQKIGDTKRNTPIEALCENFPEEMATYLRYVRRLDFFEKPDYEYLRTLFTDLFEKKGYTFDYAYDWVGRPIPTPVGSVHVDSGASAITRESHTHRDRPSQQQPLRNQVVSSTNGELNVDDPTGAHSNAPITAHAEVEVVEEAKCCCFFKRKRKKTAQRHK
Homeodomain-interacting protein kinase 4, sequence (Q8NE63 whole entry): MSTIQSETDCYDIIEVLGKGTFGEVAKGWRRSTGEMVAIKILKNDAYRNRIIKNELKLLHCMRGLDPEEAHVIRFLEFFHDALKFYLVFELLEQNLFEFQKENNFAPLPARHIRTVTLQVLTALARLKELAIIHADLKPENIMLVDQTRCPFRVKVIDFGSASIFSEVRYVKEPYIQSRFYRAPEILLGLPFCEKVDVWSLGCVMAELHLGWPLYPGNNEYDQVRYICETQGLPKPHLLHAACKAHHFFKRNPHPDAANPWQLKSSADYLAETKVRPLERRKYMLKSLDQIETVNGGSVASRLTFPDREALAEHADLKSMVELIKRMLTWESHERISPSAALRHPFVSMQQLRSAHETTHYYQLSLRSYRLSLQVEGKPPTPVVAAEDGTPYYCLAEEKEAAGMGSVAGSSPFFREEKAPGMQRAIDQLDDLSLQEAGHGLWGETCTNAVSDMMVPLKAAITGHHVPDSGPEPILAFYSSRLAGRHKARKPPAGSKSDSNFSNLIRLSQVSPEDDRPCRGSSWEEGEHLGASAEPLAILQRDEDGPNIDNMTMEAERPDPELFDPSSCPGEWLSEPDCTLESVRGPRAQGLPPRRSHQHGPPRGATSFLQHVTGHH

Work on `CCN(CC)CCCCNc1ncc2cc(-c3cc(OC)cc(OC)c3)c(NC(=O)NC(C)(C)C)nc2n1` yielded a % of control [1] of 100%.

For `CCC(=O)N1CCN(c2ccc(-n3c(=O)ccc4cnc5ccc(-c6cnc7ccccc7c6)cc5c43)cc2C(F)(F)F)CC1`, the % of control [2] was 99%.

`O=C(NOC[C@H](O)CO)c1ccc(F)c(F)c1Nc1ccc(I)cc1F` gave a % of control [3] of 100%.

In the case of `CCc1cc(Nc2nccc(-c3c(-c4ccc(OC)c(C(=O)Nc5c(F)cccc5F)c4)nc4ccccn34)n2)c(OC)cc1N1CCC(N2CCN(S(C)(=O)=O)CC2)CC1`, the % of inhibition [4] is reported as 55%.

With `CC[C@@H]1[C@H](F)C(=O)N[C@@H]1COc1nccc2cc(C(N)=O)c(OC)cc12` [ZIMLOVISERTIB] the % of inhibition [5] was 3.9%.

With `CNC(=O)Nc1ccc(-c2nc(N3CC4CCC(C3)O4)c3cnn(C4CCC5(CC4)OCCO5)c3n2)cc1` the % of control [6] was 54%.

`COc1cc(Nc2nc(C)cc(-c3cnn4nc(OC)ccc34)n2)cc(C(F)(F)F)c1` gave an IC50 [7] greater than 10 µM.

In the case of `Cn1cc(Nc2nccc(N3CC4CCC(C3)N4C(=O)[C@@H]3CC3(F)F)n2)cn1`, the % of inhibition [8] is reported as 101%.

In the case of `CN(C)C/C=C/C(=O)Nc1ccc(C(=O)N2CCCC(Nc3ncc(Cl)c(-c4c[nH]c5ccccc45)n3)C2)cc1` (stereo not given), the % of control [9] is reported as 91%.

`N#Cc1cccc(-c2c[nH]c3ncnc(N4CCOCC4)c23)c1` was tested, and the % of control [10] was 87%.

— ChEMBL document CHEMBL5465560, “Selectivity Literature for EUbOPEN Chemogenomic Library” (2024)
